In patent US20250268894A1, “MACROCYCLE COMPOUNDS FOR THE TREATMENT OF CANCER” (Hoffmann-La Roche Inc., priority 2022, published 2025):

Key:
[1] = tested on: NCI-H358 cells (KRAS G12C); assay: Cell viability assay (Cell Counting Kit-8), KRAS G12C; format: cell-based; details: Homo sapiens, NCI-H358, 72 hrs
How it was run: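 Cells seeded overnight at 5,000/well (NCI-H358) or 2,000/well (AGS, SW620), then exposed to compound for 72 hrs at 0.5% DMSO final. CCK-8 read as OD450 minus OD650 after 2 hrs; IC50 from 4-parameter sigmoidal fit.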

KRAS G12V-BRAF complex = KRAS G12V-BRAF complex (Homo sapiens (Human), UniProt P01116+P62937, G12V); assay: KRAS-BRAF with CYPA (500 nM) interaction assay (TR-FRET), G12V; format: biochemical
How it was run: (§1)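 TR-FRET read of compound- or compound-CYPA-driven disruption of BRAF binding by KRAS G12C, G12D or G12V, with CYPA at 500 nM. Compounds tested as 16-point 3-fold dilutions from 10 μM final, incubated 3 hours. Ex320/Em 665/615 nm ratio drop relative to DMSO wells marks disruption.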

[2] = tested on: Miapaca-2 KRAS G12C + S65W cells; assay: Stable KRAS mutant cell line viability assay (CellTiter-Glo), G12C + S65W; format: cell-based; details: Homo sapiens, MIA PaCa-2, 72 h, Miapaca-2 mutant cells, 3 d
Description: (§2) The aim of the study was to determine the potency and efficacy of compounds for cell proliferation using CellTiter-Glo® (CTG) Luminescent Cell Viability Assay (Promega Corp., Madison, WI). We cloned […] KRAS^G12C variant sequences with secondary mutations (V8A, V9Y, S17E, T58I, A59T, S65W, R68S, D69P, M72I, D92R, H95N, Y96D, Q99F, Q99W, Y96H, and F156L) into the Miapaca-2. Totally 14 stable Miapaca-2 mutant cell lines were established through lentivirus infection. For the cell viability assay, cells were dosed with compounds in a 9-point dose-response using a 4 fold dilution series at a top dose of 10 μM. KRAS mutant cells were maintained in DMEM+10% FBS+2.5% HI Horse serum+1% PS+1 μg/mL Puromycin and seeded into 96-well plates at 800-1,500 cells per well 24 h before compound addition and then incubated with compound for 3 d before assaying viability (CellTiter-Glo, Promega). Assays were performed in biological duplicates. Nonlinear regression curves were fitted using Xfit. IC50 (absolute IC50) is the dose at which the estimated viability is 50% relative to untreated wells.

[3] = tested on: phosphorylation of ERK, KRAS G12C in NCI-H358 cells; assay: pERK inhibition assay, KRAS G12C in NCI-H358 cells; format: cell-based, human; details: Homo sapiens, NCI-H358, 4 hours
How it was run: (§3)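 NCI-H358 (G12C), AGS (G12D) and SW620 (G12V) cells in RPMI-1640/10% FBS, plated overnight, then treated 4 h with compound (0.5% DMSO final). Fixed, methanol-permeabilized; phospho-ERK detected by in-cell ELISA (anti-pERK, HRP secondary, TMB, OD450). IC50 from 4-parameter sigmoidal fit.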

KRAS G12C-BRAF complex = KRAS G12C-BRAF complex (Homo sapiens (Human), UniProt P01116+P62937, G12C); assay: KRAS-BRAF with CYPA (500 nM) interaction assay (TR-FRET), G12C; format: biochemical
How it was run: as §1

[4] = tested on: Miapaca-2 KRAS G12C + D92R cells; assay: Stable KRAS mutant cell line viability assay (CellTiter-Glo), G12C + D92R; format: cell-based; details: Homo sapiens, MIA PaCa-2, 72 h, Miapaca-2 mutant cells, 3 d
Description: as §2

[5] = tested on: phosphorylation of ERK, KRAS G12D in AGS cells; assay: pERK inhibition assay, KRAS G12D in AGS cells; format: cell-based, human; details: Homo sapiens, 4 hours
How it was run: as §3

[6] = tested on: Miapaca-2 KRAS G12C + V9Y cells; assay: Stable KRAS mutant cell line viability assay (CellTiter-Glo), G12C + V9Y; format: cell-based; details: Homo sapiens, MIA PaCa-2, 72 h, Miapaca-2 mutant cells, 3 d
Description: as §2

[7] = tested on: phosphorylation of ERK, KRAS G12V in SW620 cells; assay: pERK inhibition assay, KRAS G12V in SW620; format: cell-based, human; details: Homo sapiens, SW-620, SW620, 4 hours
How it was run: as §3

[8] = tested on: Miapaca-2 KRAS G12C + H95N cells; assay: Stable KRAS mutant cell line viability assay (CellTiter-Glo), G12C + H95N; format: cell-based; details: Homo sapiens, MIA PaCa-2, 72 h, Miapaca-2 mutant cells, 3 d
Description: as §2

KRAS G12C-BRAF complex, sequence (P01116-2 other isoform, or with tags, fused parts or gaps G12C): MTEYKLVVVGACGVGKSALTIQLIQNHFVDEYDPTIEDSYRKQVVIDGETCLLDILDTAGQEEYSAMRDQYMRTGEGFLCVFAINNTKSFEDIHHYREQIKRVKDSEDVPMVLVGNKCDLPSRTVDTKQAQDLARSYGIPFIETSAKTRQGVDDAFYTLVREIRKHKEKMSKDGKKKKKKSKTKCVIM
KRAS G12C-BRAF complex, sequence (P62937 whole entry): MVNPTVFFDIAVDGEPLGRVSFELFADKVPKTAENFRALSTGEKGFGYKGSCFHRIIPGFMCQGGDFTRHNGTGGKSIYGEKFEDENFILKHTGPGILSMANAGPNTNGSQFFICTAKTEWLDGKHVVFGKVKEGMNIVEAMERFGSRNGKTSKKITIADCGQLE
KRAS G12V-BRAF complex, sequence (P01116-2 other isoform, or with tags, fused parts or gaps G12V): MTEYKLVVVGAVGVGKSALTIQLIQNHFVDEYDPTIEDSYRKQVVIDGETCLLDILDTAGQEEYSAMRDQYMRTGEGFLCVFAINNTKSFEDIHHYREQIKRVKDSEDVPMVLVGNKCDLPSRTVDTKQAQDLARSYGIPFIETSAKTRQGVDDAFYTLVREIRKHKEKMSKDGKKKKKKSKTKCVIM
KRAS G12V-BRAF complex, sequence (P62937 whole entry): as the sequence (P62937 whole entry) above

CO[C@@H](C)c1ncc(N2CCN(CC(F)(F)F)CC2)cc1-c1c2c3cc(ccc3n1CC(F)(F)F)-c1csc(n1)C[C@H](NC(=O)[C@H](C(C)C)N(C)C(=O)N1CCOCC1)C(=O)N1CCC[C@H](N1)C(=O)OCC(C)(C)C2 (atropisomer, axis not shown; (M)) [Example 6]
IC50 [1]: 5 nM
IC50 (KRAS G12V-BRAF complex): 61 nM
IC50 [2]: 6 nM
IC50 [3]: 2 nM
IC50 (KRAS G12C-BRAF complex): 23 nM
IC50 [4]: 5 nM
IC50 [5]: 3 nM
IC50 [6]: 2 nM
IC50 [7]: 2 nM
IC50 [8]: 5 nM
